Results published in ChEMBL document CHEMBL1201862, “PubChem BioAssay data set” (2004).
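Grown in 96-well plates, cells were treated for 48 hours with each compound at five concentrations. Insufficient inhibition: endpoint recorded as highest concentration tested. GI50: concentration for 50% inhibition of growth.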 The source made the active and inactive calls. Cut-off read from the data, not from the text of the source: active = GI50 up to about 1.1 µM and inactive = higher.

Columns and labels:
Assay in all cases: NCI anticancer screen, dose series, 48 h
SW-620 = system: SW-620
SK-MEL-2 = system: SK-MEL-2
MOLT-4 = system: MOLT-4
Malme-3M = system: Malme-3M
A549 = system: A549
OVCAR-8 = system: OVCAR-8
SF-295 = system: SF-295
UACC-257 = system: UACC-257
HCT-15 = system: HCT-15
LXFL 529 = system: LXFL 529
COLO 205 = system: COLO 205
EKVX = system: EKVX
OVCAR-4 = system: OVCAR-4
NCI-H23 = system: NCI-H23
SNB-75 = system: SNB-75
M14 = system: M14
DU-145 = system: DU-145
MCF7 = system: MCF7
A498 = system: A498
Hs-578T = system: Hs-578T

Measured: GI50

COc1ccc(C(=O)/C(=N/Nc2ccccc2)c2ccc(OC)cc2)cc1
8.55 µM: HCT-15
inactive: SW-620 > 100 µM | SK-MEL-2 > 100 µM | MOLT-4 9.66 µM | Malme-3M > 100 µM | A549 > 100 µM | OVCAR-8 > 100 µM | SF-295 > 100 µM | UACC-257 > 100 µM | LXFL 529 25.2 µM | COLO 205 > 100 µM | EKVX > 100 µM | OVCAR-4 > 100 µM | NCI-H23 > 100 µM | SNB-75 27 µM

COc1ccc(CNC2=C(NC(C)=O)C(=O)c3ccccc3C2=O)cc1
inactive: SW-620 8.13 µM | SK-MEL-2 9.18 µM | MOLT-4 3.71 µM | Malme-3M 8.32 µM | A549 17.3 µM | OVCAR-8 16.8 µM | SF-295 17.8 µM | M14 19.4 µM | UACC-257 8.77 µM | LXFL 529 8.07 µM | COLO 205 9.44 µM | EKVX 14.7 µM | OVCAR-4 8.13 µM | NCI-H23 6.68 µM | SNB-75 12.8 µM
13.1 µM: HCT-15

N#Cc1c(C#N)c(-c2ccco2)n(/N=C/c2ccco2)c1N
inactive: DU-145 39 µM | SW-620 > 100 µM | SK-MEL-2 > 100 µM | MOLT-4 94.6 µM | MCF7 6.5 µM | Malme-3M > 100 µM | A549 47.5 µM | OVCAR-8 23.3 µM | SF-295 21.9 µM | M14 > 100 µM | A498 27.6 µM | UACC-257 > 100 µM | Hs-578T 17.4 µM | COLO 205 > 100 µM | EKVX 20.1 µM | OVCAR-4 76.9 µM | NCI-H23 > 100 µM | SNB-75 7.29 µM
29.6 µM: HCT-15

Nc1ncn(C/C=C/c2ccccc2)c2ncnc1-2
inactive: DU-145 > 100 µM | SW-620 > 100 µM | SK-MEL-2 > 100 µM | MOLT-4 16.6 µM | MCF7 > 100 µM | Malme-3M > 100 µM | A549 > 100 µM | OVCAR-8 > 100 µM | SF-295 > 100 µM | M14 > 100 µM | A498 75.3 µM | UACC-257 > 100 µM | Hs-578T > 100 µM | COLO 205 > 100 µM | EKVX 32.4 µM | OVCAR-4 > 100 µM | NCI-H23 > 100 µM | SNB-75 70.3 µM
> 100 µM: HCT-15

COc1ccc(C2C(Cl)C(=O)N2n2cnc3ccccc3c2=O)cc1OC (configuration not stated)
inactive: SW-620 > 100 µM | SK-MEL-2 > 100 µM | MOLT-4 82.4 µM | Malme-3M > 100 µM | A549 > 100 µM | OVCAR-8 > 100 µM | SF-295 > 100 µM | M14 > 100 µM | UACC-257 32 µM | LXFL 529 > 100 µM | COLO 205 > 100 µM | EKVX > 100 µM | OVCAR-4 > 100 µM | NCI-H23 42 µM | SNB-75 21.5 µM
> 100 µM: HCT-15

CNCC(SC)c1ccc(O)c(O)c1 (configuration not stated)
30.8 µM: HCT-15
inactive: DU-145 17.9 µM | SW-620 19.4 µM | SK-MEL-2 > 100 µM | MOLT-4 17.2 µM | MCF7 29.2 µM | Malme-3M 17.5 µM | A549 > 100 µM | OVCAR-8 19.2 µM | SF-295 > 100 µM | M14 52.8 µM | A498 > 100 µM | UACC-257 14.1 µM | Hs-578T 66.1 µM | COLO 205 17.1 µM | EKVX 15.8 µM | OVCAR-4 17 µM | NCI-H23 31 µM | SNB-75 28.8 µM

CCCSc1ccc2[nH]c(N3C(=O)/C(=C/c4ccc(SC)cc4)N=C3c3ccccc3)cc2c1
22.1 µM: HCT-15
inactive: DU-145 > 50 µM | SW-620 18.5 µM | SK-MEL-2 24.4 µM | MOLT-4 1.87 µM | MCF7 14.1 µM | Malme-3M 40.6 µM | A549 19.5 µM | OVCAR-8 > 44.6 µM | SF-295 29.7 µM | M14 21.4 µM | A498 26.9 µM | UACC-257 17.3 µM | Hs-578T 28.1 µM | COLO 205 14.2 µM | EKVX 18.2 µM | OVCAR-4 19.6 µM | NCI-H23 > 34.4 µM | SNB-75 > 34.4 µM

C=CCN1CCC(OC(=O)C(O)(C#CC)C2CCCC2)CC1 (configuration not stated)
> 100 µM: HCT-15
inactive: DU-145 > 100 µM | SW-620 > 100 µM | SK-MEL-2 > 100 µM | MOLT-4 > 100 µM | MCF7 > 100 µM | Malme-3M > 100 µM | A549 > 100 µM | OVCAR-8 > 100 µM | SF-295 > 100 µM | M14 > 100 µM | A498 > 100 µM | UACC-257 > 100 µM | Hs-578T > 100 µM | COLO 205 > 100 µM | EKVX > 100 µM | OVCAR-4 > 100 µM | NCI-H23 > 100 µM | SNB-75 > 77.3 µM
